These results are taken from patent US20240252673A1, “ANTI-TISSUE FACTOR ANTIBODY-DRUG CONJUGATES AND THEIR USE IN THE TREATMENT OF CANCER” (priority 2017, published 2024).

Where a SMILES comes first, the peptide text is derived from it. [ ]: non-standard residue; d: D form. The star is where a group is joined. Dolaproine = CO[C@@H]([C@@H]1CCCN1)[C@@H](C)C(=O)O; Dil = CC[C@H](C)[C@H](NC)[C@@H](CC(=O)O)OC; X1 = C[C@@H](N*)[C@@H](O)c1ccccc1; NMeV = CN[C@H](C(=O)O)C(C)C

This data set in a line: Phase I/II dose-escalation study: plasma pharmacokinetics. It is filed as in vivo, human. As to conditions: after tisotumab vedotin, cycle 1 and cycle 2, all dose cohorts (FIG. 4). On the procedure:
A first-in-human phase I/II dose-escalating study following a 3+3 dose-escalation design was conducted in order to test the safety of tisotumab vedotin in 27 subjects with locally advanced and/or metastatic cancer of various types including cervical cancer (FIG. 2). Tisotumab vedotin was administered by intravenous infusion at doses ranging from 0.3 mg/kg to 2.2 mg/kg on day 1 of a 21-day cycle for four cycles (i.e., each treatment cycle was 3 weeks). Patients with stable disease (SD) or better at the end of four cycles had the option to continue treatment with tisotumab vedotin for eight additional cycles (FIG. 2). Tumor evaluations were performed by CT scans every six weeks. In order to qualify for SD, results of the CT scan scheduled for week six needed to be SD or better. Two CT scans were performed outside the per-protocol defined window.
A primary objective of the study was to assess the safety and tolerability in a mixed population of patients with specified solid tumors. Adverse event (AE) severity was graded according to Common Terminology Criteria for Adverse Events (CTCAE) version 4.03. Secondary objectives of the study included determining the pharmacokinetic (PK) profile of tisotumab vedotin and preliminary evaluation of anti-tumor activity as assessed according to Response Evaluation Criteria in Solid Tumors [RECIST] version 1.1. Dose-limiting toxicities (DLTs) were determined during the first cycle and were defined as grade≥3 events possibly related to tisotumab vedotin. […] Tumor biopsies were required at baseline for TF expression which was assessed by immunohistochemistry utilizing tisotumab. TF staining intensity was determined using the H-scoring system.
The geometric means (% CV) of the time to reach Cmax (Tmax)(hr), maximum concentration (Cmax)(ng/mL), and area under the concentration time curve (AUC)0-t (hr*ng/mL) was measured for the pharmacokinetics (PK) portion of the study (Table 3). Low levels of unconjugated MMAE were measured in systemic circulation (FIG. 4).

With `CC[C@H](C)[C@@H]([C@@H](CC(=O)N1CCC[C@H]1[C@H](OC)[C@@H](C)C(=O)N[C@H](C)[C@@H](O)c1ccccc1)OC)N(C)C(=O)[C@@H](NC(=O)[C@@H](NC)C(C)C)C(C)C` [MMAE, monomethyl auristatin E] (H-[NMeV]V[Dil][Dolaproine]-X1), the “unconjugated MMAE in systemic circulation” value is listed as “Low levels”.
